In patent US20250082656A1, “DOSAGE REGIMENS FOR TREATMENT OF DENGUE INFECTION” (Atea Pharmaceuticals, Inc., priority 2022, published 2025):

Key:
DENV1 MTase domain = DENV1 MTase domain (Dengue virus type 1, UniProt P17763); test: Thermal shift assay, DENV1 MTase domain; details: read-out: ΔTM
DENV1 RdRp domain = test: Thermal shift assay, DENV1 RdRp domain; details: RdRp domain DENV1, 100 μM compound
DENV3 RdRp domain = test: Thermal shift assay, DENV3 RdRp domain; details: RdRp domain DENV3, 100 μM compound
DENV4 MTase domain = DENV4 MTase domain (Dengue virus type 4, UniProt P09866); test: Thermal shift assay, DENV4 MTase domain; details: read-out: ΔTM
DENV4 MTase domain, sequence (P09866 2489-2751): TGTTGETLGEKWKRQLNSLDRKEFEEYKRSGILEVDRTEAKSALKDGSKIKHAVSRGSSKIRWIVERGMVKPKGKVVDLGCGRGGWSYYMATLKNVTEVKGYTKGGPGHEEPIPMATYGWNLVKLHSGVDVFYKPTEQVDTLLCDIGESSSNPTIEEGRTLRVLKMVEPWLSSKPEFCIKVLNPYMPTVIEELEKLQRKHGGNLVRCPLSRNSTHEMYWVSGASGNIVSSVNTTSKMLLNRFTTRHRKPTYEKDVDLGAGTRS

[1] = Plasma PK after single oral dose of AT-752, mice; details: Mouse, single oral AT-752 420 mg/kg
[2] = Plasma PK after single oral dose of AT-752, monkeys; assay type: in vivo, cynomolgus monkeys; details: Monkey, single oral AT-752 300 mg/kg
Experimental: Male cynomolgus monkeys were administered 300 mg/kg Compound 2 (AT-752). Blood samples were collected up to 24 hrs. post dose, plasma separated and analyzed for Compound 1 (AT-281), Compound 3 (AT-551), and Compound 6 (AT-273) by LC-MS/MS. Data are express as mean+/−SD (n=3-5/time point). The x-axis is time post the dose measured in hours and the y-axis is the plasma concentration of the metabolites measured in nanomoles/mL). The experimental procedure is provided in Example 14.
Male non-naïve cynomolgus monkeys (Hainan Jingang Laboratory Animal Co. Ltd., China), at least 2 kg body weight, were individually housed during the study in stainless steel mesh cages, provided ad libitum access to RO water, fed twice daily (except on the day of dosing when they were fed once) with ˜60 g Certified Monkey Diet each feed (Beijing Vital Keao Feed Co., Ltd., Beijing, China) and given daily treats of fresh fruit. They (n=5) were administered a dose of Compound 2 (AT-752) at 300 mg/kg in 40% PEG400, 10% solutol HS15, 50% 100 mM citrate buffer, pH 4.5 (v/v) by oral gavage, and blood samples (˜0.5 mL) were collected at 1, 2, 4, 8, 12 and 24 h post dose. Plasma was separated at each time point for pharmacokinetics, and stored at −70° C. […] Separately, three monkeys were given an oral dose of Compound 2 (AT-752) as powder in capsules at 60 mg/kg ([…] (AT-281) equivalent dose of 55 mg/kg), and blood samples collected at 12, 24 and 48 h post dose.
Pharmacokinetic measurements for FIGS. 11, 12, 13, 14, and 15 were analyzed using LC-MS/MS according to the protocol described herein. Plasma samples were prepared for MS analysis by adding internal standards and extracting with 20 volumes chilled ACN. After vortex (800 rpm for 10 min) and centrifugation (4,000 rpm, 15 min, 4° C.), the supernatants (25 μL) were diluted with an equal volume of H2O, mixed and spun again. After adding internal standards, the PBMC samples (10^6 cells) were lyzed with 300 μL MeOH/H2O (70:30, v/v) and 40 mM dibutylammonium acetate (DBAA), mixed by vortex and centrifuged (12,000 rpm, 15 min, 4° C.). Aliquots of the supernatants (35 μL) were dried under nitrogen and reconstituted in H2O, then mixed and spun again. […] A binary nonlinear gradient with mobile phases A (0.1% formic acid in water) and B (0.1% formic acid in ACN) were used to elute samples at 0.8 mL/min, with a run time of 5 min. […] A binary nonlinear gradient with mobile phases A (0.001% NHr H2O, 0.18 mM DBAA in H2O) and B (10 mM N,N-dimethyl-hexylamine, 3 mM NH4OAc in ACN/H2O (50.50, v/v)) were used to elute samples at 0.5 mL/min, with a run time of 3 min. Standards in 50% MeOH were used for calibration. […] Internal standards (ISS) as described previously (Good et al., Preclinical evaluation of AT-527, a novel guanosine nucleotide prodrug with potent, pan-genotypic activity against hepatitis C virus. PLos One 15:e02271045) were used to correct for variations in recovery.
Data analysis of the pharmacokinetic data generated according to Example 21 and presented in FIGS. 11, 12, 13, 14, and 15 was analyzed according to the procedure described herein. Plasma concentrations of Compound 1 (AT-281), Compound 3 (AT-551) and Compound 6 (AT-273) were subjected to non-compartmental pharmacokinetic analysis using Phoenix WinNonlin software (version 6.3 or above, Pharsight, Mountain View, CA). The linear/log trapezoidal rule was applied in obtaining the PK parameters.

Influenza A and B = test: Antiviral specificity panel, Influenza A and B; assay type: cell-based; details: Influenza A virus; RNA virus, MDCK
Dengue serotype 4 = test: In vitro antiviral potency, summary over strains, Dengue serotype 4; assay type: cell-based; details: Dengue virus
[3] = test system: Respiratory syncytial virus; test: Antiviral specificity panel, RSV; assay type: cell-based; details: human respiratory syncytial virus, HEp-2; RNA virus, HEp2
West Nile (WNV) = test: Neutral red assay of virus-induced CPE, WNV; assay type: cell-based; details: Kern 515, WNo2, Huh-7, neutral red assay
[4] = Cytotoxicity in Vero cells; assay type: cell-based; details: African green monkey, Table 2, Vero, parallel to the virus of the line
Experimental: (§1) To assess the antiviral specificity of Compound 1 (AT-281), serial dilutions were incubated with various host cell lines infected with a panel of DNA and RNA viruses other than flaviviruses. The activity of Compound 1 (AT-281) was measured in infected cells using the neutral red assay to determine the effective concentration required to inhibit viral replication 50% (EC50) (described in Example 3) and the threshold concentration required to obtain a perceptible effect on 50% of the cells incubated without virus (CC50). Compound 1 (AT-281) had no activity against the DNA viruses tested and was only weakly or not active against several RNA viruses (Table 2).

DENV-1 = test: microbe, parasite or virus in culture; details: Dengue virus, DENV1, Huh-7
[5] = Cytotoxicity in CEM-SS cells; assay type: cell-based; details: human, Table 2, CEM-SS
Experimental: as §1

flaviviruses = test: organism not typed; details: 144 h, read-out: concentration to achieve 50% inhibition (EC50) of the virus-induced cytopathic effect (CPE), range over 11 strains of 7 flaviviruses in 3 cell types, 3- to 6-day incubation

DENV1 MTase domain, sequence (P17763 2495-2756): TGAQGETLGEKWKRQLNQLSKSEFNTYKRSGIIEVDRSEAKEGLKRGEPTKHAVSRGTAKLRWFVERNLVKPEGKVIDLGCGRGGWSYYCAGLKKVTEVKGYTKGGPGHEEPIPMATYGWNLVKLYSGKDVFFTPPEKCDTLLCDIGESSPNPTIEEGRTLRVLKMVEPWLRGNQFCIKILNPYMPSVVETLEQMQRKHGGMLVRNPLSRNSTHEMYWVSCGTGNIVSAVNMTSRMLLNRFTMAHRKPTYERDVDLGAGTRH

SMILES | ΔTm at 100 µM (DENV1 MTase domain) | ΔTM (DENV1 RdRp domain) | ΔTM (DENV3 RdRp domain) | ΔTm at 100 µM (DENV4 MTase domain) | AUC0-24 h [1] | Cmax [1] | AUC0-24 h ([2]; plasma) | Cmax ([2]; plasma) | Tmax [1] | EC50 (Influenza A and B) | EC50 (Dengue serotype 4) | EC50 [3] | EC50 (West Nile (WNV)) | CC50 [4] | EC50 (DENV-1) | time present in plasma [2] | Tmax ([2]; plasma) | CC50 [5] | EC50 (flaviviruses)
C[C@@]1(F)[C@H](O)[C@@H](COP(=O)(O)OP(=O)(O)OP(=O)(O)O)O[C@H]1n1cnc2c(=O)[nH]c(N)nc21 [Compound 5] | 3.8 ± 0.1 °C | 5.6±0.1 °C | 3.2 ± 0.1 °C | 2.9 ± 0.1 °C |  |  |  |  |  |  |  |  |  |  |  |  |  |  | 
C[C@@]1(F)[C@H](O)[C@@H](CO)O[C@H]1n1cnc2c(=O)[nH]c(N)nc21 [Compound 6, 2′-fluoro-2′-C-methylguanosine] |  |  |  |  | 18.8 ± 6.0 µM·h | 2300 ± 700 nM | 7.8 ± 2.4 µM·h | 800 ± 200 nM |  |  |  |  |  |  |  |  |  |  | 
CNc1nc(N)nc2c1ncn2[C@@H]1O[C@H](CO[P@](=O)(N[C@@H](C)C(=O)OC(C)C)Oc2ccccc2)[C@@H](O)[C@@]1(C)F [Compound 1, isopropyl ((R)-(((2R,3R,4R,5R)-5-(2-amino-6-(methylamino)-9H-purin-9-yl)-4-fluoro-3-hydroxy-4-methyltetrahydrofuran-2-yl)methoxy)(phenoxy)phosphoryl)-L-alaninate] |  |  |  |  | 4.2 ± 0.5 µM·h | 2600 ± 300 nM | 9.5 ± 3.7 µM·h | 3700 ± 1500 nM | 48 ± 18 min | > 100000 nM | < 1200 nM | > 100000 nM | 1410 nM | > 100000 nM | 570 nM | more than 4 h | 60 min | > 100000 nM | 190 to 1410 nM
